In PMC10388636 (Nature structural & molecular biology, 2022):

Experiments:
[1] = target: TEL-MTase fusion (nsp14 N7-MTase-TELSAM) (Severe acute respiratory syndrome coronavirus 2, UniProt P0DTD1); experiment: ITC binding to TEL-MTase fusion; set-up: species or system SARS-CoV-2
[2] = target: SARS-CoV-2 nsp14/nsp10 complex (Severe acute respiratory syndrome coronavirus 2, UniProt P0DTD1); experiment: ITC binding to full-length nsp14/nsp10 complex
[3] = target: SARS-CoV-2 MTase domain (residues 289–527) (Severe acute respiratory syndrome coronavirus 2, UniProt P0DTD1); experiment: ITC binding to isolated MTase domain

Q: With `Nc1ncnc2c1ncn2[C@@H]1O[C@H](CSCC[C@H](N)C(=O)O)[C@@H](O)[C@H]1O` [SAH, S-adenosylhomocysteine] as the compound, how does the Kd [1] read?
A: Its Kd is 5 µM.

Q: And the Kd [2]?
A: Its Kd is 0.3 µM.

Q: `C[S+](CC[C@H](N)C(=O)[O-])C[C@H]1O[C@@H](n2cnc3c(N)ncnc32)[C@H](O)[C@@H]1O` (stereo partly shown) [SAM, S-adenosylmethionine] was tested. Which Kd [3] did it give?
A: Its Kd is 22 to 25 µM.

Q: And the Kd [2]?
A: Its Kd is 5.7 µM.
